Results from US20230084978A1, “OPTIMIZATION OF PEPTIDE-MELANIN BINDING” (ASSITANCE PUBLIQUE - HÔPITAUX DE PARIS, priority 2020, published 2023).

Assays:
[1] = Binding of peptides to synthetic melanin (Tricine-SDS-PAGE analysis); conditions: for Percentage of peptide binding to melanin, Mel + peptide: L-Dopa polymerized 2 h at pH 8.5 and 60° C. before the peptide was added; for binding of the peptides to melanin (in words), SDS-page analysis: antigen added just after L-Dopa is polymerized in melanin; for Percentage of peptide binding to melanin, Peptide-Mel: peptide mixed with L-Dopa (1/4 gp100, 1/6 EphA2), then 2 hours at pH 8.5 and 60° C.
From the text: The binding of the peptide to the melanin can be verified by Tricine-SDS-PAGE analysis as described in Carpentier; 2017 (op. cit.). Briefly, samples (peptide-Mel or peptide alone) are loaded on acrylamide gels. Following electrophoresis, the gels are stained with Coomassie Brilliant Blue R-250, allowing the quantification of the free peptide in the gel. The binding of peptides to melanin can be expressed as the ratio: [amount of unbound peptide in samples Peptide-Mel/amount of peptides in control samples containing peptides alone.
Peptides were mixed with L-Dopa (weight ratio peptide/L-Dopa=1/4 and 1/6 for gp100 and EphA2, respectively) then incubated for 2 hours at pH 8.5 and 60° C. under agitation to ensure oxygenation of the solution to generate nanoparticles of melanin-bound peptides (Peptide-Mel). Alternatively, L-Dopa alone (0.8 mg/ml) was polymerized into melanin for 2 h at pH 8.5 and 60° C. under agitation, before the peptides (weight ratio peptide/L-Dopa=1/4 and 1/6 for gp100 and EphA2, respectively) were added to the solution (Mel+peptide). Tricine-SDS-PAGE analysis was performed as described in Carpentier; 2017 (op. cit.). Briefly, samples (peptide-Mel or peptide alone) were loaded on acrylamide gels. Following electrophoresis, the gels were stained with Coomassie Brilliant Blue R-250 and imaged with the ChemiDoc XRS+ system (Bio-Rad Laboratory), allowing the quantification of the free peptide in the gel. The binding of peptides to melanin was expressed as the ratio: [amount of unbound peptide in samples Peptide-Mel/amount of peptides in control samples containing peptides alone]
First column (Peptide-Mel): L-Dopa (0.8 mg/ml) was mixed with peptides (weight ratio peptide/L-Dopa=1/4) then incubated for 2 hours at pH 8.5 and 60° C. to generate nanoparticles of melanin-bound peptides. Alternatively (second column; Mel+peptide), L-Dopa alone (0.8 mg/ml) was first polymerized into melanin for 2 h at pH 8.5 and 60° C. under vigorous agitation, before the peptides (weight ratio peptide/L-Dopa=1/4) were added to the solution and incubated for 2 hours at room temperature. In both cases, the percentage of peptides that bound to melanin was then quantified with SPS-page analysis, as described in table 1. (ND=not done)
(§1) L-Dopa (0.8 mg/ml) underwent an oxidative polymerization at pH 8.5 in aerobic conditions for 2 hours at 60° C. The reaction mixture was then filtered on a 10 kDa filter, and the retentate containing the synthetic melanin was resuspended at pH 7.5 in phosphate buffer. Peptides were then added (at the weight ratio peptide/L-Dopa=1/4) and the mixture was incubated for various periods of time and or pH. The percentage of peptides that bound to melanin was then quantified with SPS-page analysis, as described in table 1. (ND=not done).
as §1, with “8.5 and 60° C.” for “8.5 in aerobic conditions”, “2 hours.” for “2 hours at 60° C.”, “of time. Binding” for “of time and or pH. The percentage”, “of the” for “of”, “peptides” for “peptides that bound to melanin”, “(ND=not done)” for “(ND=not done).”

C57BL/6 mice = experiment: CTL response (IFNg-SFCs of re-stimulated splenocytes) after subcutaneous immunization; type: in vivo; conditions: antigen added just after polymerization (Mel+peptide) + CpG-28, subcutaneous, 10 μg/mouse, day 8
Protocol: FIG. 1: CTL response after subcutaneous immunizations in 5-weeks old, C57BL/6, mice. Peptides (10 μg/mouse) were mixed with L-Dopa (weight ratio peptide/L-Dopa=1/4 and 1/6 for gp100 and EphA2 respectively) and incubated under the above described conditions (see table 1). Phosphorothioate oligonucleotide CpG-28 (5′-[…], SEQ ID NO: 21), were added to vaccine formulations (10 μg/mouse) just before the immunizations. Mice were then immunized sub-cutaneously with gp100-Mel+CpG (“gp100-Mel”), or with previously synthesized melanin mixed with gp100 and CpG (“Mel+gp100”); EphA2-Mel+CpG (“EphA2-Mel”), melanin+EphA2+CpG (“Mel+EphA2”). Mice were sacrificed on day 8 and the CTL response was performed as described in Carpentier; 2017. Briefly, splenocytes were re-stimulated in vitro with the corresponding MHC class 1-epitope (non-conjugated to melanin) and the numbers of IFNg-SFCs (Spot forming cells) were measured and expressed as Mean+/−S.E.M. (n=8 mice/group with pooled data from 2 different experiments of 4 mice each. Student-T test: gp100-Mel vs Mel+gp100: p<0.001; EphA2-Mel vs Mel+EphA2: p<0.001)
FIG. 2: CTL response after subcutaneous immunizations in C57BL/6 mice. […]

Sequence | Percentage of peptide binding to melanin, Mel + peptide [1] | binding of the peptides to melanin (in words), SDS-page analysis [1] | Percentage of peptide binding to melanin, Peptide-Mel [1] | ability of the vaccine formulation to trigger a CTL (CD8) response (C57BL/6 mice) | Binding of peptides on synthetic melanin, Mel + peptide 10 minutes ([1]; filtered preformed melanin at pH 7.5, peptide/L-Dopa 1/4, 10 minutes) [%] | Binding of peptides on synthetic melanin, Mel + peptide 2 hours ([1]; filtered preformed melanin at pH 7.5, peptide/L-Dopa 1/4, 2 hours) [%] | Binding of peptides on synthetic melanin, Mel + peptide 18 hours ([1]; filtered preformed melanin at pH 7.5, peptide/L-Dopa 1/4, 18 hours) [%]
FSHHNIIRL (EphA2 peptide) [SEQ ID NO: 2, reference compound] | 9 +/− 6% | minimal binding | 93 +/− 12% | lost |  |  | 
KVPRNQDWL (gp100 peptide) [SEQ ID NO: 1, reference compound] | 23 +/− 8% | minimal binding | 100 +/− 0% | lost | 6 | 22 | 89
